Test results as given in PubChem BioAssay AID2060905 (Molecular Pharmacology Branch, DTP, NCI, 2025).

Tested on: 282377-053-R-J1-PDC complex spheroid viability
Test: Anticancer human tumor 282377-053-R-J1-PDC patient-derived colon adenocarcinoma cell line growth inhibition [RAS]
Details: for IC50: curve of first compound; for viability, T/C: stronger effect = lower value
Method in brief: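 Multi-cell-type spheroids: tumor cells plus HUVEC endothelial cells and mesenchymal stem cells. RAS-pathway inhibitors were combined with targeted agents, each dosed in half-log steps down from clinical Cmax, or from 10 microM when Cmax was unknown.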

[1] = second compound 0.0316 µM, first compound 0.00316 µM
[2] = second compound 0.0316 µM, first compound 0.01 µM
[3] = second compound 0.0316 µM, first compound 0.0316 µM
[4] = second compound 0.0316 µM, first compound 0.1 µM
[5] = second compound 0.0316 µM, first compound 0.316 µM
[6] = second compound 0.0316 µM, first compound 1 µM
[7] = second compound 0.1 µM, first compound 0.00316 µM
[8] = second compound 0.1 µM, first compound 0.01 µM
[9] = second compound 0.1 µM, first compound 0.0316 µM
[10] = second compound 0.1 µM, first compound 0.1 µM
[11] = second compound 0.1 µM, first compound 0.316 µM
[12] = second compound 0.1 µM, first compound 1 µM
[13] = second compound 0.316 µM, first compound 0.00316 µM
[14] = second compound 0.316 µM, first compound 0.01 µM
[15] = second compound 0.316 µM, first compound 0.0316 µM
[16] = second compound 0.316 µM, first compound 0.1 µM
[17] = second compound 0.316 µM, first compound 0.316 µM
[18] = second compound 0.316 µM, first compound 1 µM
[19] = second compound 1 µM, first compound 0.00316 µM
[20] = second compound 1 µM, first compound 0.01 µM
[21] = second compound 1 µM, first compound 0.0316 µM
[22] = second compound 1 µM, first compound 0.1 µM
[23] = second compound 1 µM, first compound 0.316 µM
[24] = second compound 1 µM, first compound 1 µM
[25] = second compound 0.00316 µM, first compound 0.00316 µM
[26] = second compound 0.00316 µM, first compound 0.01 µM
[27] = second compound 0.00316 µM, first compound 0.0316 µM
[28] = second compound 0.00316 µM, first compound 0.1 µM
[29] = second compound 0.00316 µM, first compound 0.316 µM
[30] = second compound 0.00316 µM, first compound 1 µM
[31] = second compound 0.01 µM, first compound 0.00316 µM
[32] = second compound 0.01 µM, first compound 0.01 µM
[33] = second compound 0.01 µM, first compound 0.0316 µM
[34] = second compound 0.01 µM, first compound 0.1 µM
[35] = second compound 0.01 µM, first compound 0.316 µM
[36] = second compound 0.01 µM, first compound 1 µM
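Further: spheroids exposed to agents for seven days before readout.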
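Wherever viability, T/C is given: luminescence viability as percent of DMSO vehicle control wells.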

C=CC(=O)N1CCN(c2nc(OCC3CCCN3C)nc3c(F)c(-c4nc(N)cc(C)c4C(F)(F)F)c(Cl)cc23)C(C)C1 (stereo not drawn) + C#Cc1c(F)ccc2cc(O)cc(-c3ncc4c(N5CC6CCC(C5)N6)nc(OCC56CCCN5CC(F)C6)nc4c3F)c12
IC50 (second compound 0.0316 µM): > 1000 nM
IC50 (second compound 0.1 µM): > 1000 nM
IC50 (second compound 0.316 µM): > 1000 nM
IC50 (second compound 1 µM): > 1000 nM
IC50 (second compound 3.16 µM): > 1000 nM
IC50 (second compound 10 µM): > 1000 nM
viability, T/C [1]: 111%
viability, T/C [2]: 128%
viability, T/C [3]: 132%
viability, T/C [4]: 108%
viability, T/C [5]: 107%
viability, T/C [6]: 123%
viability, T/C [7]: 98.7%
viability, T/C [8]: 96.9%
viability, T/C [9]: 97.2%
viability, T/C [10]: 96.4%
viability, T/C [11]: 91.6%
viability, T/C [12]: 84.4%
viability, T/C [13]: 106%
viability, T/C [14]: 105%
viability, T/C [15]: 91%
viability, T/C [16]: 99.5%
viability, T/C [17]: 96.7%
viability, T/C [18]: 104%
viability, T/C [19]: 99.6%
viability, T/C [20]: 90.9%
viability, T/C [21]: 92.8%
viability, T/C [22]: 90.6%
viability, T/C [23]: 118%
viability, T/C [24]: 97.5%
viability, T/C (second compound 3.16 µM, first compound 0.00316 µM): 91.1%
viability, T/C (second compound 3.16 µM, first compound 0.01 µM): 109%
viability, T/C (second compound 3.16 µM, first compound 0.0316 µM): 107%
viability, T/C (second compound 3.16 µM, first compound 0.1 µM): 98.6%
viability, T/C (second compound 3.16 µM, first compound 0.316 µM): 108%
viability, T/C (second compound 3.16 µM, first compound 1 µM): 123%
viability, T/C (second compound 10 µM, first compound 0.00316 µM): 100%
viability, T/C (second compound 10 µM, first compound 0.01 µM): 112%
viability, T/C (second compound 10 µM, first compound 0.0316 µM): 116%
viability, T/C (second compound 10 µM, first compound 0.1 µM): 102%
viability, T/C (second compound 10 µM, first compound 0.316 µM): 85.1%
viability, T/C (second compound 10 µM, first compound 1 µM): 107%

CC1(C)CCC(Nc2ncc(C(F)(F)F)c(-c3c[nH]c4c(P(C)(C)=O)c(C#N)ccc34)n2)CN1 (stereo not drawn) + C#Cc1c(F)ccc2cc(O)cc(-c3ncc4c(N5CC6CCC(C5)N6)nc(OCC56CCCN5CC(F)C6)nc4c3F)c12
IC50 (second compound 0.0316 µM): > 300 nM
IC50 (second compound 0.1 µM): > 300 nM
IC50 (second compound 0.316 µM): > 300 nM
IC50 (second compound 1 µM): > 300 nM
IC50 (second compound 3.16 µM): > 300 nM
IC50 (second compound 10 µM): > 300 nM
viability, T/C (second compound 0.0316 µM, first compound 0.000949 µM): 142%
viability, T/C (second compound 0.0316 µM, first compound 0.003 µM): 109%
viability, T/C (second compound 0.0316 µM, first compound 0.00949 µM): 91.4%
viability, T/C (second compound 0.0316 µM, first compound 0.03 µM): 69%
viability, T/C (second compound 0.0316 µM, first compound 0.0949 µM): 71.2%
viability, T/C (second compound 0.0316 µM, first compound 0.3 µM): 66.8%
viability, T/C (second compound 0.1 µM, first compound 0.000949 µM): 103%
viability, T/C (second compound 0.1 µM, first compound 0.003 µM): 132%
viability, T/C (second compound 0.1 µM, first compound 0.00949 µM): 87.1%
viability, T/C (second compound 0.1 µM, first compound 0.03 µM): 72.6%
viability, T/C (second compound 0.1 µM, first compound 0.0949 µM): 71.9%
viability, T/C (second compound 0.1 µM, first compound 0.3 µM): 72.5%
viability, T/C (second compound 0.316 µM, first compound 0.000949 µM): 118%
viability, T/C (second compound 0.316 µM, first compound 0.003 µM): 92.6%
viability, T/C (second compound 0.316 µM, first compound 0.00949 µM): 92.3%
viability, T/C (second compound 0.316 µM, first compound 0.03 µM): 67.1%
viability, T/C (second compound 0.316 µM, first compound 0.0949 µM): 71.9%
viability, T/C (second compound 0.316 µM, first compound 0.3 µM): 57.8%
viability, T/C (second compound 1 µM, first compound 0.000949 µM): 112%
viability, T/C (second compound 1 µM, first compound 0.003 µM): 110%
viability, T/C (second compound 1 µM, first compound 0.00949 µM): 96.9%
viability, T/C (second compound 1 µM, first compound 0.03 µM): 80.4%
viability, T/C (second compound 1 µM, first compound 0.0949 µM): 74.9%
viability, T/C (second compound 1 µM, first compound 0.3 µM): 67.7%
viability, T/C (second compound 3.16 µM, first compound 0.000949 µM): 93%
viability, T/C (second compound 3.16 µM, first compound 0.003 µM): 103%
viability, T/C (second compound 3.16 µM, first compound 0.00949 µM): 98.8%
viability, T/C (second compound 3.16 µM, first compound 0.03 µM): 75.4%
viability, T/C (second compound 3.16 µM, first compound 0.0949 µM): 83.6%
viability, T/C (second compound 3.16 µM, first compound 0.3 µM): 72.9%
viability, T/C (second compound 10 µM, first compound 0.000949 µM): 113%
viability, T/C (second compound 10 µM, first compound 0.003 µM): 87.3%
viability, T/C (second compound 10 µM, first compound 0.00949 µM): 98%
viability, T/C (second compound 10 µM, first compound 0.03 µM): 88.4%
viability, T/C (second compound 10 µM, first compound 0.0949 µM): 98.6%
viability, T/C (second compound 10 µM, first compound 0.3 µM): 76.7%

C=CC(=O)Nc1cc(Nc2nccc(-c3cn(C)c4ccccc34)n2)c(OC)cc1N(C)CCN(C)C + C=CC(=O)N1CCN(c2nc(OCC3CCCN3C)nc3c(F)c(-c4nc(N)cc(C)c4C(F)(F)F)c(Cl)cc23)C(C)C1
IC50 (second compound 0.00316 µM): > 1000 nM
IC50 (second compound 0.01 µM): > 1000 nM
IC50 (second compound 0.0316 µM): > 1000 nM
IC50 (second compound 0.1 µM): > 1000 nM
IC50 (second compound 0.316 µM): > 1000 nM
IC50 (second compound 1 µM): > 1000 nM
viability, T/C [25]: 126%
viability, T/C [26]: 113%
viability, T/C [27]: 124%
viability, T/C [28]: 102%
viability, T/C [29]: 112%
viability, T/C [30]: 114%
viability, T/C [31]: 123%
viability, T/C [32]: 111%
viability, T/C [33]: 100%
viability, T/C [34]: 106%
viability, T/C [35]: 109%
viability, T/C [36]: 100%
viability, T/C [1]: 112%
viability, T/C [2]: 112%
viability, T/C [3]: 100%
viability, T/C [4]: 124%
viability, T/C [5]: 114%
viability, T/C [6]: 96.3%
viability, T/C [7]: 118%
viability, T/C [8]: 107%
viability, T/C [9]: 136%
viability, T/C [10]: 113%
viability, T/C [11]: 94.7%
viability, T/C [12]: 120%
viability, T/C [13]: 122%
viability, T/C [14]: 107%
viability, T/C [15]: 110%
viability, T/C [16]: 105%
viability, T/C [17]: 121%
viability, T/C [18]: 122%
viability, T/C [19]: 139%
viability, T/C [20]: 116%
viability, T/C [21]: 114%
viability, T/C [22]: 118%
viability, T/C [23]: 121%
viability, T/C [24]: 137%

O=C(c1ccc(F)c(F)c1Nc1ccc(I)cc1F)N1CC(O)([C@@H]2CCCCN2)C1 + C=CC(=O)N1CCN(c2nc(OCC3CCCN3C)nc3c(F)c(-c4nc(N)cc(C)c4C(F)(F)F)c(Cl)cc23)C(C)C1
IC50 (second compound 0.00316 µM): 80.8 nM
IC50 (second compound 0.01 µM): 104 nM
IC50 (second compound 0.0316 µM): 130 nM
IC50 (second compound 0.1 µM): 176 nM
IC50 (second compound 0.316 µM): 145 nM
IC50 (second compound 1 µM): 141 nM
viability, T/C [25]: 90.2%
viability, T/C [26]: 88.3%
viability, T/C [27]: 77.2%
viability, T/C [28]: 41.4%
viability, T/C [29]: 32.6%
viability, T/C [30]: 18.4%
viability, T/C [31]: 102%
viability, T/C [32]: 94%
viability, T/C [33]: 68.8%
viability, T/C [34]: 52.3%
viability, T/C [35]: 31.6%
viability, T/C [36]: 17.7%
viability, T/C [1]: 88.5%
viability, T/C [2]: 87.3%
viability, T/C [3]: 81.3%
viability, T/C [4]: 56.1%
viability, T/C [5]: 28.9%
viability, T/C [6]: 20.7%
viability, T/C [7]: 95.6%
viability, T/C [8]: 86.2%
viability, T/C [9]: 95.1%
viability, T/C [10]: 66.3%
viability, T/C [11]: 32.9%
viability, T/C [12]: 21.1%
viability, T/C [13]: 101%
viability, T/C [14]: 95.8%
viability, T/C [15]: 87.2%
viability, T/C [16]: 57.8%
viability, T/C [17]: 32.2%
viability, T/C [18]: 17.9%
viability, T/C [19]: 98.3%
viability, T/C [20]: 93.7%
viability, T/C [21]: 98.5%
viability, T/C [22]: 55.7%
viability, T/C [23]: 35.5%
viability, T/C [24]: 18%
